Assay results reported in ChEMBL document CHEMBL1201862, “PubChem BioAssay data set” (2004).
Calls of active or inactive are those of the source.

How the values were obtained:
[1] = SAR analysis of small molecule activators of Apaf-1 using a LZ-Caspase-9/Caspase-3 Fluorescent Selectivity assay - Set 2.; type: functional; conditions: read-out: EC50_Mean
[2] = biological target: T1, Apoptotic protease-activating factor 1 (Homo sapiens, UniProt O14727); test: SAR analysis of small molecule Activators of Apaf-1 in a Fluorescent assay - set 2.; type: functional; conditions: read-out: EC50_Mean
T1 sequence (O14727 whole entry): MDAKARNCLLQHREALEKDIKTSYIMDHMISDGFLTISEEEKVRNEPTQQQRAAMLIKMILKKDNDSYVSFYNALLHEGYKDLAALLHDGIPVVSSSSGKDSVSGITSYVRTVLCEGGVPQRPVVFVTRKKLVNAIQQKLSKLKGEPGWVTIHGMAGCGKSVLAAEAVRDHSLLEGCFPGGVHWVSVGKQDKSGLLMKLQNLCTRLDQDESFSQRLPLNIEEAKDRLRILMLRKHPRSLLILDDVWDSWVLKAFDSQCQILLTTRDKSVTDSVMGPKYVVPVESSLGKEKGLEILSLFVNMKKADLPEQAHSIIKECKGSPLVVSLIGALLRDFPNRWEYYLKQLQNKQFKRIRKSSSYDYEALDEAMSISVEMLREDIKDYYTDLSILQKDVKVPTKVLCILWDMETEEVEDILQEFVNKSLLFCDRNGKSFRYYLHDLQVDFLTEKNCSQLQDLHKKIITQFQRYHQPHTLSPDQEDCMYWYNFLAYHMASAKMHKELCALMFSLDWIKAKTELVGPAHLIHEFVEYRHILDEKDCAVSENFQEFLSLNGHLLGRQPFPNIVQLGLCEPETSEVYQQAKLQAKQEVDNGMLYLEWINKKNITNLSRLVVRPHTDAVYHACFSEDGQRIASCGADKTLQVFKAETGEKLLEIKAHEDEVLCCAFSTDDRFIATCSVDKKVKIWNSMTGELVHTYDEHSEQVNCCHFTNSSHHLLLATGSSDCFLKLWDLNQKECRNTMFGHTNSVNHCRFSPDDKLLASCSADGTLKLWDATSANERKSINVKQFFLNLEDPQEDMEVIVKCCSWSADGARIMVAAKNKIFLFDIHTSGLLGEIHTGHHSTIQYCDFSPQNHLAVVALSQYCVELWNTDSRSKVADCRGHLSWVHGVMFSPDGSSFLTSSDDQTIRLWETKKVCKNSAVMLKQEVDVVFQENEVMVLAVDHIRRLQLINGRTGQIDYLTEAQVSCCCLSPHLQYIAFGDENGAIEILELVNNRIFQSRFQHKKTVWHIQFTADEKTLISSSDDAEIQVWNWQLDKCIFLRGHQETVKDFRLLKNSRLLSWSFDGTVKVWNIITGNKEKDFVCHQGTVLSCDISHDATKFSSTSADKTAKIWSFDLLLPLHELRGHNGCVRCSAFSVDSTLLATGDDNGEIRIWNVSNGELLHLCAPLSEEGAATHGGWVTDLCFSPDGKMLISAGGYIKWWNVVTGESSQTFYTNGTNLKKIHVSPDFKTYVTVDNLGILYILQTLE

[3] = biological target: T2, DNA dC->dU-editing enzyme APOBEC-3G (Homo sapiens, UniProt Q9HC16); test: SAR analysis of small molecule inhibitors of APOBEC3G DNA Deaminase via a fluorescence-based single-stranded DNA deaminase assay - Set 2.; type: functional; conditions: read-out: IC50_Mean
T2 sequence (Q9HC16 whole entry): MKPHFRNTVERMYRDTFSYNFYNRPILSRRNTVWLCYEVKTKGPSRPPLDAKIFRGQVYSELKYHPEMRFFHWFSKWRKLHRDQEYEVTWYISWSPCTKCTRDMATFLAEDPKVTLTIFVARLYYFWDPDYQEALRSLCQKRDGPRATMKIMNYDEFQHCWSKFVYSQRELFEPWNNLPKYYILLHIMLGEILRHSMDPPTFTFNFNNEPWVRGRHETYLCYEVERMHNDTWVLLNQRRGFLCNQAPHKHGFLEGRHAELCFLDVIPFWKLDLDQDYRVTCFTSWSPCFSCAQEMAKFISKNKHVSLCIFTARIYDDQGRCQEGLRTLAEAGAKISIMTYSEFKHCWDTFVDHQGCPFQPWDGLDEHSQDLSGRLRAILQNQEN

[4] = biological target: Induced myeloid leukemia cell differentiation protein Mcl-1 (Homo sapiens, UniProt Q07820); type: functional
Chain of Induced myeloid leukemia cell differentiation protein Mcl-1 (Q07820 whole entry): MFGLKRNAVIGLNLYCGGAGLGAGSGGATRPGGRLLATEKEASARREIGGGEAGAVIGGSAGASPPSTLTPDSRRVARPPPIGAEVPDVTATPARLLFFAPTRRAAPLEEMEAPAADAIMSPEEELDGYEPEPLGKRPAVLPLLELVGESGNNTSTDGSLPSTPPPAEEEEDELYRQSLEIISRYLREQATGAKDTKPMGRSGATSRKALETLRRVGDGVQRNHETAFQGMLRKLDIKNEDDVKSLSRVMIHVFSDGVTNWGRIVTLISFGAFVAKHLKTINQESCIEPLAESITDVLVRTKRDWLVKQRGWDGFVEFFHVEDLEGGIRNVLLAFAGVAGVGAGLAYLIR

[5] = biological target: T3, Tyrosine-protein phosphatase non-receptor type 7 (Homo sapiens, UniProt P35236); type: functional
T3 sequence (P35236 whole entry): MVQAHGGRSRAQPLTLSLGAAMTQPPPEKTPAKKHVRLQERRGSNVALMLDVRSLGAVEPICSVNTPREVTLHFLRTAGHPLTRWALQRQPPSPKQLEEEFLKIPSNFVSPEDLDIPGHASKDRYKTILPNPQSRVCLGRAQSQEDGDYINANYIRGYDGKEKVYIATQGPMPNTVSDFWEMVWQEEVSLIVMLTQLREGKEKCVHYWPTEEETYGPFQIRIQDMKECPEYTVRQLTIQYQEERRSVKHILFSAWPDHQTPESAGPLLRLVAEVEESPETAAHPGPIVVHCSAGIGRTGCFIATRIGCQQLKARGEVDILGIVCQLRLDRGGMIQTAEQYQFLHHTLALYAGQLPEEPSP

[6] = biological target: T4, Dual specificity protein phosphatase 6 (Rattus norvegicus, UniProt Q64346); test: MKP-3 phosphatase inhibitors, primary screen, biochemical, rat enzyme, in vitro (AID 425)
T4 sequence (Q64346 whole entry): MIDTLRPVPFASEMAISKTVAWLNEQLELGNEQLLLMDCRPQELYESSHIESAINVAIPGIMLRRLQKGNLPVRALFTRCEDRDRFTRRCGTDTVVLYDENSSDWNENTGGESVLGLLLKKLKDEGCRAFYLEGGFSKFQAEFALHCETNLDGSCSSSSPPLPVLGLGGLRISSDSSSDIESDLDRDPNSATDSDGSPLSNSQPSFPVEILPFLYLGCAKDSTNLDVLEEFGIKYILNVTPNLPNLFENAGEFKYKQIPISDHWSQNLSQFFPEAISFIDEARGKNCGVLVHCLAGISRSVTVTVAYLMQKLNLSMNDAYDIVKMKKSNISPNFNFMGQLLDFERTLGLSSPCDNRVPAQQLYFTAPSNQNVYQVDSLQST

[7] = biological target: T5, DNA dC->dU-editing enzyme APOBEC-3A (Homo sapiens, UniProt P31941); test: SAR analysis of small molecule inhibitors of APOBEC3A DNA Deaminase via a fluorescence-based single-stranded DNA deaminase assay.; type: functional; conditions: read-out: IC50_Mean
T5 sequence (P31941 whole entry): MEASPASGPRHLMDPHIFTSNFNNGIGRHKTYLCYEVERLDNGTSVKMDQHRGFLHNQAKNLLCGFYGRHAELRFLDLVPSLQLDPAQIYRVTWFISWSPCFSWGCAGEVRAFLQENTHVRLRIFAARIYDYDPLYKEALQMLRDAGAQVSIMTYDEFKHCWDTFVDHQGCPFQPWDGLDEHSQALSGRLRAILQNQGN

[8] = biological target: T6, Zinc finger protein mex-5 (Caenorhabditis elegans, UniProt Q9XUB2); test: MEX-5/TCR-2 RNA interaction inhibitors, dose response, biochemical, C. elegans, fluorescence polarization (AID 1960)
T6 sequence (Q9XUB2 whole entry): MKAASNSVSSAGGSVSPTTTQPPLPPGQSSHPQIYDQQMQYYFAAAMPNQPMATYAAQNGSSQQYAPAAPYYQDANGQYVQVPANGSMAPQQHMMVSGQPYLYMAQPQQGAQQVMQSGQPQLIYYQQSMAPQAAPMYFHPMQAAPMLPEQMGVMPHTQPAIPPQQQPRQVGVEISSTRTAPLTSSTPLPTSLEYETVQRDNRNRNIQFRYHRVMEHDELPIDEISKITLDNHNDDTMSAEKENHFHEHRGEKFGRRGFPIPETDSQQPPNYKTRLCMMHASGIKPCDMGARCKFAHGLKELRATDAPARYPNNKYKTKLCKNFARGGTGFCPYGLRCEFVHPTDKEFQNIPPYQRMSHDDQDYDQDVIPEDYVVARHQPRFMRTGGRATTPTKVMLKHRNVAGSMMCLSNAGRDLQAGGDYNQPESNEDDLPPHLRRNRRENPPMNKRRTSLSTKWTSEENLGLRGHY

[9] = biological target: T4, Dual specificity protein phosphatase 6
[10] = biological target: Eukaryotic translation initiation factor 4E (Mus musculus, UniProt P63073); test: eIF4E–eIF4G protein interaction inhibitors, dose response, biochemical, TR-FRET (AID 855); type: functional;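 also: potency for disrupting eIF4E binding to eIF4GI seen as loss of FRET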
Chain of Eukaryotic translation initiation factor 4E (P63073 whole entry): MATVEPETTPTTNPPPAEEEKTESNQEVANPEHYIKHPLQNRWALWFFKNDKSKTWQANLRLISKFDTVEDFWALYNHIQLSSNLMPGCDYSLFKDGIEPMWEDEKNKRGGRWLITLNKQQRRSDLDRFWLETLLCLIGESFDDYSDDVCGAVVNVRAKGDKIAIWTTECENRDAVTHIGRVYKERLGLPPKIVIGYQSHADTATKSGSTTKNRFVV

[11] = biological target: T5, DNA dC->dU-editing enzyme APOBEC-3A; test: SAR analysis of small molecule inhibitors of APOBEC3A DNA Deaminase via a fluorescence-based single-stranded DNA deaminase assay - Set 2.; type: functional; conditions: read-out: IC50_Mean
[12] = biological target: T2, DNA dC->dU-editing enzyme APOBEC-3G; test: APOBEC3G deaminase inhibitors, SAR follow-up, biochemical, fluorescence, single-stranded DNA substrate (AID 602136); type: functional; conditions: read-out: IC50_Mean
[13] = biological target: Heat shock 70 kDa protein 1A (Homo sapiens, UniProt P0DMV8); test: Hsp70 inhibitors, SAR follow-up, biochemical, fluorescence polarization (AID 1072)
Chain of Heat shock 70 kDa protein 1A (P0DMV8 whole entry): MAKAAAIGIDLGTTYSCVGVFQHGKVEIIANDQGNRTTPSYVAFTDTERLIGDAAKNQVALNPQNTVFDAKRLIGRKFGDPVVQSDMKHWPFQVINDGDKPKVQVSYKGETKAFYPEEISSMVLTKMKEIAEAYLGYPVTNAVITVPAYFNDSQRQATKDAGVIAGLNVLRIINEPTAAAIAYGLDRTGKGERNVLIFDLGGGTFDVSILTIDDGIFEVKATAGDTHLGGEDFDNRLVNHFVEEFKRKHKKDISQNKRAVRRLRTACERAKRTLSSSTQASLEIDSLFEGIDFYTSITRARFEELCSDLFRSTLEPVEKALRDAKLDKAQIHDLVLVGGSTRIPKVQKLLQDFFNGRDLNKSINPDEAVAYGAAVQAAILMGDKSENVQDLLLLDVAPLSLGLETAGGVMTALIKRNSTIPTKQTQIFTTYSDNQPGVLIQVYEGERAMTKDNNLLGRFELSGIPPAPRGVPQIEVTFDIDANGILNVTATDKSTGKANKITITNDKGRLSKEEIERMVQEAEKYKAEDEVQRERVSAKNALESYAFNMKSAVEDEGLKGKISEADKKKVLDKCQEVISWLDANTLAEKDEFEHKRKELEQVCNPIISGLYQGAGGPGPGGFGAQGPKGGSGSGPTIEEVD

[14] = biological target: Glyceraldehyde-3-phosphate dehydrogenase (Homo sapiens, UniProt P04406)
Chain of Glyceraldehyde-3-phosphate dehydrogenase (P04406 whole entry): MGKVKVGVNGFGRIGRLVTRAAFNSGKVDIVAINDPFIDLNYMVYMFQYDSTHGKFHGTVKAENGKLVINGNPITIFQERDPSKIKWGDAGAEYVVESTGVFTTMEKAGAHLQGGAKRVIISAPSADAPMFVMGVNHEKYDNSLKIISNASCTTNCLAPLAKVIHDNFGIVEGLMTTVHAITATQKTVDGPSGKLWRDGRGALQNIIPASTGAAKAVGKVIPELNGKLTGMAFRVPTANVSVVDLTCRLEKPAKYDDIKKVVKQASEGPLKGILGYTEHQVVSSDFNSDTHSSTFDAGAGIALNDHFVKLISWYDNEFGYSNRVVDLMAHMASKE

[15] = biological target: Heat shock cognate 71 kDa protein (Homo sapiens, UniProt P11142); test: In Vitro Hsc70 Dose Response Fluorescence Polarization Assay. [Related pubchem assays: 1072 ]
Chain of Heat shock cognate 71 kDa protein (P11142 whole entry, the tested form may be a part): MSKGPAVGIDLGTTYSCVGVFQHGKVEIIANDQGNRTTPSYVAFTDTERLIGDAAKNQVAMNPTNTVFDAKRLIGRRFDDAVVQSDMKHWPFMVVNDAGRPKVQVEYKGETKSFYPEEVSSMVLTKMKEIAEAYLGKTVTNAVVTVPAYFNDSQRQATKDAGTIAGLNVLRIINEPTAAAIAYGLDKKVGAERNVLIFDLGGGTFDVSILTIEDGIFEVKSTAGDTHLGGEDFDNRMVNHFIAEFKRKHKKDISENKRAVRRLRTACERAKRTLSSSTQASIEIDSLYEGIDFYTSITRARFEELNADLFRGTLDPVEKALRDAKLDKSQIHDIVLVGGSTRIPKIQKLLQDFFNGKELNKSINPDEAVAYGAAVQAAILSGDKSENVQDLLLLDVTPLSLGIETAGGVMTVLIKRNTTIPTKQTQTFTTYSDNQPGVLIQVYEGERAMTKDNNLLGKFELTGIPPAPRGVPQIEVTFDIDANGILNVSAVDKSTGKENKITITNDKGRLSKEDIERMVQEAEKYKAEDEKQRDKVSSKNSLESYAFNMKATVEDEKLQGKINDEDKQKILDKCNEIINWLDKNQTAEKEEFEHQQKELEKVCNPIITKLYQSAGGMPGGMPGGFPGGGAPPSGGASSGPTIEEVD

[16] = biological target: T7, RNA-binding protein pos-1 (Caenorhabditis elegans, UniProt G5EF15); test: inhibitors of POS-1/mex-3 RNA binding, dose response, biochemical, fluorescence polarization (AID 1964);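 also: purified POS-1 fused to maltose binding protein made in E. coli; potency of compounds blocking POS-1 binding to fluorescent RNA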
T7 sequence (G5EF15 whole entry): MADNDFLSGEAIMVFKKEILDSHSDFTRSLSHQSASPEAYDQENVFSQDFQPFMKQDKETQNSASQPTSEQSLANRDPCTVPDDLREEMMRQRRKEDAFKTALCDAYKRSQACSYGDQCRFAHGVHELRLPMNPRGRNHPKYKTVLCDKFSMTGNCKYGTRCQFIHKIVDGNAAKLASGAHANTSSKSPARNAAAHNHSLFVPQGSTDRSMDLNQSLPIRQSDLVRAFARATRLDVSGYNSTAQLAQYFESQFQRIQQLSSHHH

Large T antigen = Large T antigen (Simian virus 40, UniProt P03070); type: functional, Betapolyomavirus macacae;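 also: Confirmatory-stage PubChem screen for compounds that inhibit SV40 T antigen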
Chain of Large T antigen (P03070 whole entry): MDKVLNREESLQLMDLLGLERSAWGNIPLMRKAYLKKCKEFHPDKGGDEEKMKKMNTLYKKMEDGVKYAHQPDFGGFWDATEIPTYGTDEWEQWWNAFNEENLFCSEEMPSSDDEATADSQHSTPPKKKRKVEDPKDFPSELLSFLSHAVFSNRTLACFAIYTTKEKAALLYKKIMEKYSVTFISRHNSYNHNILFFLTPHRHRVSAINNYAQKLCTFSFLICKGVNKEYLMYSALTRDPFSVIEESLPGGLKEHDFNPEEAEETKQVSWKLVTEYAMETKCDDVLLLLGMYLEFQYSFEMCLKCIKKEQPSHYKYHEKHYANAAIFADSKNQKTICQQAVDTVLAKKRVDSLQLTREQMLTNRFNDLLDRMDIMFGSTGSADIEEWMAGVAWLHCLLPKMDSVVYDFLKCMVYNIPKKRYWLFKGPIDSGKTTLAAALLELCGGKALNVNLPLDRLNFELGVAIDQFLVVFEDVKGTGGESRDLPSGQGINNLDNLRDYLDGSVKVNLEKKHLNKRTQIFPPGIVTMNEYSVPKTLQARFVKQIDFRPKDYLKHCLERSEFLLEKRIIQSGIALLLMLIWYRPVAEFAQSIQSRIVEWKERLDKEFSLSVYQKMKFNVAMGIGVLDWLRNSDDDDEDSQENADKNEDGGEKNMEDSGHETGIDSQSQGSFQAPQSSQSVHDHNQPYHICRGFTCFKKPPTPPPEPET

Bcl-2-like protein 10 = biological target: T8, Bcl-2-like protein 10 (Homo sapiens, UniProt Q9HD36); test: displacers of TR3 peptide from Bcl-B, primary screen, selectivity assay for Bfl-1 inhibitor project, biochemical, fluorescence polarization, FITC-TR3 peptide (AID 748);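 also: fluorescence polarization from a fluorescein-labelled TR3 peptide binding purified Bcl-B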
T8 sequence (Q9HD36 whole entry): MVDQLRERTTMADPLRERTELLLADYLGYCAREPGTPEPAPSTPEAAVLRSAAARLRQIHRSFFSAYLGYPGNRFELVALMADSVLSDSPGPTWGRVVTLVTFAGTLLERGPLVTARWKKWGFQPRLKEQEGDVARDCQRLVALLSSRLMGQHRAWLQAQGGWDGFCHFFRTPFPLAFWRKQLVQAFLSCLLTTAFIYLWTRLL

[17] = biological target: T4, Dual specificity protein phosphatase 6; type: functional

Structure (SMILES): O=C(O)C1CC(c2ccccc2O)=NO1 (centres undefined)
- EC50 [1]: > 100 µM (inactive)
- EC50 [2]: > 100 µM (inactive)

Structure (SMILES): Cc1ccc2c(c1C)NC(C(=O)O)C1CC=CC21 (centres undefined)
- IC50 [3]: 0.858 µM (active)
- IC50 [4]: 3.17 µM (active)
- IC50 [5]: 5.43 µM (active)
- IC50 [6]: > 10 µM (not active)
- IC50 [7]: 6.55 µM (active)
- EC50 [8]: 21.7 µM (active)
- IC50 [9]: 6.2 µM (active)
- IC50 [10]: 8.68 µM (active)
- IC50 [11]: 1.7 µM (active)
- IC50 [12]: 30.3 µM (inactive)
- IC50 [13]: 7.18 µM (active)
- IC50 [14]: 80.8 µM (active)
- IC50 [15]: 21.9 µM (active)
- EC50 [16]: 37.4 µM (active)
- IC50 (Large T antigen): 91.4 µM (active)
- IC50 (Bcl-2-like protein 10): 1.89 µM (active)
- IC50 [17]: 5.96 µM (active)
